The text below walks through data of article PMC9667936, “Functional mapping of the 14-3-3 hub protein as a guide to design 14-3-3 molecular glues” (Chemical Science, 2022).

The structures appear in SMILES notation. Where a SMILES comes first, the peptide text is derived from it. [ ]: non-standard residue; d: D form. ξ: configuration not given here. Phe(4-NO2) = N[C@@H](Cc1ccc([N+](=O)[O-])cc1)C(=O)O; ξAla(4-thiazolyl) = NC(Cc1cscn1)C(=O)O; pS = N[C@@H](COP(=O)(O)O)C(=O)O; β3hS = N[C@@H](CO)CC(=O)O; Nva = CCC[C@H](N)C(=O)O; βAla = NCCC(=O)O

The target of this experiment is T1, 14-3-3γ (Homo sapiens, UniProt P61981).
T1 construct: made in house; host or cells: E. coli NiCo21 (DE3)
T1 sequence (P61981 1-247): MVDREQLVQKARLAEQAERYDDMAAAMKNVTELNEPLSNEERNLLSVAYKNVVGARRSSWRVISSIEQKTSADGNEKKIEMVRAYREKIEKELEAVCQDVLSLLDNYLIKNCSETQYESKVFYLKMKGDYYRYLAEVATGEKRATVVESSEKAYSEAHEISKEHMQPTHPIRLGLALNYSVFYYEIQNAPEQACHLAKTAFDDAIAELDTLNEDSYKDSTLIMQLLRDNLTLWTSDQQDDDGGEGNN
Put plainly: Fluorescence anisotropy (FA) binary binding study: 14-3-3 titrated to fluorescein-labelled peptide. The note with it: for Affinity Kd: 10 nM FITC-labelled peptide; for Fold change to 1 / ΔG / ΔΔG to 1: Table S4. In short, it runs like this: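 N-terminal His6-tagged full-length human 14-3-3γ expressed in E. coli, Ni-NTA purified and dialyzed into 25 mM HEPES pH 8.0, 100 mM NaCl, 10 mM MgCl2, 500 μM TCEP. Tag-cleaved 14-3-3σ truncated after T231 used for crystallography. Labelled peptides made by Fmoc solid-phase synthesis.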

Turning to `CCC[C@H](NC(=O)[C@H](N)CCCCN)C(=O)N[C@@H](Cc1ccc([N+](=O)[O-])cc1)C(=O)NC(Cc1cscn1)C(=O)N[C@@H](COP(=O)(O)O)C(=O)N[C@@H](Cc1ccc(O)cc1)C(=O)N[C@@H](CO)CC(=O)NCCC(=O)N[C@@H](Cc1ccc([N+](=O)[O-])cc1)C(=O)N[C@@H](CCCCN)C(N)=O` (stereo partly drawn) [4a] (H-[dK][Nva][Phe(4-NO2)][ξAla(4-thiazolyl)][pS]Y[β3hS][βAla][Phe(4-NO2)]K-NH2; N-terminus and C-terminus assumed), the “Affinity Kd” value (Table S4, point-mutated peptides, FA, replicate 1) is 0.047 µM; the “Affinity Kd” value (Table S4, point-mutated peptides, FA, replicate 2) is 0.041 µM; the “Affinity Kd” value (Table S4, point-mutated peptides, FA, replicate 3) turned out to be 0.063 µM. Moreover, the Kd (Table S4, point-mutated peptides, FA, 14-3-3 titrated to 10 nM FITC-labelled peptide, HEPES pH 7.4, room temperature, 4PL fit, mean of n = 3, read-out: Affinity Kd) came out at 0.05 µM. Besides, the “Fold change to 1” value (FA Kd / Kd of 1, replicate 1) amounted to 0.9; the “Fold change to 1” value (FA Kd / Kd of 1, replicate 2) is 0.6; the “Fold change to 1” value (FA Kd / Kd of 1, replicate 3) is 0.9; the “Fold change to 1” value (FA Kd of peptide divided by Kd of 1, mean of n = 3) worked out at 0.8. The ΔG by setting is: (calculated from FA Kd, mean of n = 3) -10.0 kcal/mol; (from FA Kd, replicate 1) -10.0 kcal/mol; (from FA Kd, replicate 2) -10.1 kcal/mol; (from FA Kd, replicate 3) -9.8 kcal/mol. In addition, the “ΔΔG to 1” value runs as follows: (ΔG minus ΔG of 1, FA, replicate 1) -0.1 kcal/mol; (ΔG minus ΔG of 1, FA, replicate 2) -0.3 kcal/mol; (ΔG minus ΔG of 1, FA, replicate 3) -0.1 kcal/mol; (ΔG of peptide minus ΔG of 1, FA, mean of n = 3) -0.2 kcal/mol.
